From the supplement of paper PMC6045584
± gives the standard deviation of the averaged measurements.

Key:
[1] = compound: CC(=O)NCC(=O)N1[C@@H]2CC[C@H]1c1ccc(Nc3ncc(C(F)(F)F)c(NC4CCC4)n3)cc12; assay: surviving fraction relative to DMSO-only wells; higher = less growth inhibition; conditions: exposure time: 5 days
Procedure, shortened: (§1)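 Continuous five-day exposure to inhibitors at 0.5, 1, 5, 10, 50, 100, 500 and 1000 nM started 24 hours after log-phase tumour cell lines were seeded at 250–500 cells per well in 384-well plates. Luminescence was read after 10 minutes at room temperature. Viability is given as surviving fraction, meaning CellTiter-Glo luminescence normalised to the median of DMSO-only wells.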

PACLITAXEL [2] = compound: T1, CC(=O)O[C@H]1C(=O)[C@@]2(C)[C@H]([C@H](OC(=O)c3ccccc3)[C@]3(O)C[C@H](OC(=O)[C@H](O)[C@@H](NC(=O)c4ccccc4)c4ccccc4)C(C)=C1C3(C)C)[C@]1(OC(C)=O)CO[C@@H]1C[C@@H]2O [PACLITAXEL]; assay: as above; conditions: exposure time: 5 days
Procedure, shortened: as §1

[3] = compound: CC(=O)c1c(C)c2cnc(Nc3ccc(N4CCNCC4)cn3)nc2n(C2CCCC2)c1=O; assay: as above; conditions: exposure time: 5 days
Procedure, shortened: as §1

CAMPTOTHECIN = compound: CC[C@@]1(O)C(=O)OCc2c1cc1n(c2=O)Cc2cc3ccccc3nc2-1 [CAMPTOTHECIN]; assay: as above; conditions: exposure time: 5 days
Procedure, shortened: as §1

YM155 [4] = compound: T2, COCC[n+]1c2c(n(Cc3cnccn3)c1C)C(=O)c1ccccc1C2=O [YM155]; assay: as above; conditions: exposure time: 5 days
Procedure, shortened: as §1

GEFITINIB [5] = compound: T3, COc1cc2ncnc(Nc3ccc(F)c(Cl)c3)c2cc1OCCCN1CCOCC1 [GEFITINIB]; assay: as above; conditions: exposure time: 5 days
Procedure, shortened: as §1

OSI-906 [6] = compound: T4, C[C@]1(O)C[C@@H](c2nc(-c3ccc4ccc(-c5ccccc5)nc4c3)c3c(N)nccn32)C1 [OSI-906]; assay: as above; conditions: exposure time: 5 days
Procedure, shortened: as §1

CELECOXIB [7] = compound: T5, Cc1ccc(-c2cc(C(F)(F)F)nn2-c2ccc(S(N)(=O)=O)cc2)cc1 [CELECOXIB]; assay: as above; conditions: exposure time: 5 days
Procedure, shortened: as §1

CARBOPLATIN [8] = compound: T6, O=C(O)C1(C(=O)O)CCC1.[NH2-].[NH2-].[Pt+2] [CARBOPLATIN]; assay: as above; conditions: exposure time: 5 days
Procedure, shortened: as §1

[9] = compound: CC(=O)NCC(=O)N1[C@@H]2CC[C@H]1c1ccc(Nc3ncc(C(F)(F)F)c(NC4CCC4)n3)cc12; assay: area under dose-response curve of surviving fraction (unscaled, Aref=0) (surviving fraction x log10(nM)); higher = more resistant; conditions: exposure time: 5 days; dose range 0.5-1000 nM
Procedure, shortened: (§2)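 Three screens per tumour cell line were run in 384-well plates at eight inhibitor concentrations from 0.5 to 1000 nM over five days. Surviving fractions, from CellTiter-Glo luminescence normalised to DMSO-only wells, were fitted with 3-parameter logistic curves in the drc R package. The reported area under the curve is the unscaled activity area. It spans log10 dose, and Aref is 0.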

PACLITAXEL [10] = compound: T1, PACLITAXEL; assay: as above; conditions: exposure time: 5 days; dose range 0.5-1000 nM
Procedure, shortened: as §2

[11] = compound: CC(=O)c1c(C)c2cnc(Nc3ccc(N4CCNCC4)cn3)nc2n(C2CCCC2)c1=O; assay: as above; conditions: exposure time: 5 days; dose range 0.5-1000 nM
Procedure, shortened: as §2

YM155 [12] = compound: T2, YM155; assay: as above; conditions: exposure time: 5 days; dose range 0.5-1000 nM
Procedure, shortened: as §2

GEFITINIB [13] = compound: T3, GEFITINIB; assay: as above; conditions: exposure time: 5 days; dose range 0.5-1000 nM
Procedure, shortened: as §2

OSI-906 [14] = compound: T4, OSI-906; assay: as above; conditions: exposure time: 5 days; dose range 0.5-1000 nM
Procedure, shortened: as §2

CELECOXIB [15] = compound: T5, CELECOXIB; assay: as above; conditions: exposure time: 5 days; dose range 0.5-1000 nM
Procedure, shortened: as §2

CARBOPLATIN [16] = compound: T6, CARBOPLATIN; assay: as above; conditions: exposure time: 5 days; dose range 0.5-1000 nM
Procedure, shortened: as §2

SUM149.B1*.S BREAST
surviving fraction ([1]; 0.5 nM): 1 ± 0.017 | surviving fraction ([1]; 1 nM): 1.01 ± 0.037 | surviving fraction ([1]; 5 nM): 0.979 ± 0.017 | surviving fraction ([1]; 10 nM): 0.976 ± 0.038 | surviving fraction ([1]; 50 nM): 0.938 ± 0.047 | surviving fraction ([1]; 100 nM): 0.685 ± 0.049 | surviving fraction ([1]; 500 nM): 0.569 ± 0.024 | surviving fraction ([1]; 1000 nM): 0.499 ± 0.043 | surviving fraction (PACLITAXEL [2]; 0.5 nM): 0.994 ± 0.029 | surviving fraction (PACLITAXEL [2]; 1 nM): 1.02 ± 0.048 | surviving fraction (PACLITAXEL [2]; 5 nM): 0.238 ± 0.027 | surviving fraction (PACLITAXEL [2]; 10 nM): 0.158 ± 0.029 | surviving fraction (PACLITAXEL [2]; 50 nM): 0.1 ± 0.0056 | surviving fraction (PACLITAXEL [2]; 100 nM): 0.0972 ± 0.0036 | surviving fraction (PACLITAXEL [2]; 500 nM): 0.091 ± 0.0063 | surviving fraction (PACLITAXEL [2]; 1000 nM): 0.097 ± 0.0076 | surviving fraction ([3]; 0.5 nM): 1.13 ± 0.034 | surviving fraction ([3]; 1 nM): 1.07 ± 0.013 | surviving fraction ([3]; 5 nM): 1.11 ± 0.018 | surviving fraction ([3]; 10 nM): 1.07 ± 0.019 | surviving fraction ([3]; 50 nM): 1.19 ± 0.056 | surviving fraction ([3]; 100 nM): 1.22 ± 0.058 | surviving fraction ([3]; 500 nM): 1.139 ± 0.011 | surviving fraction ([3]; 1000 nM): 1.08 ± 0.021 | surviving fraction (CAMPTOTHECIN; 0.5 nM): 0.467 ± 0.023 | surviving fraction (CAMPTOTHECIN; 1 nM): 0.853 ± 0.024 | surviving fraction (CAMPTOTHECIN; 5 nM): 0.692 ± 0.075 | surviving fraction (CAMPTOTHECIN; 10 nM): 0.301 ± 0.021 | surviving fraction (CAMPTOTHECIN; 50 nM): 0.0407 ± 0.0027 | surviving fraction (CAMPTOTHECIN; 100 nM): 0.0422 ± 0.0024 | surviving fraction (CAMPTOTHECIN; 500 nM): 0.0262 ± 0.0016 | surviving fraction (CAMPTOTHECIN; 1000 nM): 0.0295 | surviving fraction (YM155 [4]; 0.5 nM): 0.847 ± 0.051 | surviving fraction (YM155 [4]; 1 nM): 1.02 ± 0.068 | surviving fraction (YM155 [4]; 5 nM): 0.903 ± 0.068 | surviving fraction (YM155 [4]; 10 nM): 0.583 ± 0.058 | surviving fraction (YM155 [4]; 50 nM): 0.0738 ± 0.0063 | surviving fraction (YM155 [4]; 100 nM): 0.0278 ± 0.0019 | surviving fraction (YM155 [4]; 500 nM): 0.0225 ± 0.00087 | surviving fraction (YM155 [4]; 1000 nM): 0.0277 ± 0.0011 | surviving fraction (GEFITINIB [5]; 0.5 nM): 1.11 ± 0.044 | surviving fraction (GEFITINIB [5]; 1 nM): 1.1 ± 0.027 | surviving fraction (GEFITINIB [5]; 5 nM): 1.11 ± 0.021 | surviving fraction (GEFITINIB [5]; 10 nM): 1.1 ± 0.023 | surviving fraction (GEFITINIB [5]; 50 nM): 1.1 ± 0.026 | surviving fraction (GEFITINIB [5]; 100 nM): 1.1 ± 0.06 | surviving fraction (GEFITINIB [5]; 500 nM): 1.03 ± 0.034 | surviving fraction (GEFITINIB [5]; 1000 nM): 0.98 ± 0.032 | surviving fraction (OSI-906 [6]; 0.5 nM): 0.935 ± 0.025 | surviving fraction (OSI-906 [6]; 1 nM): 0.927 ± 0.032 | surviving fraction (OSI-906 [6]; 5 nM): 0.92 ± 0.041 | surviving fraction (OSI-906 [6]; 10 nM): 0.926 ± 0.025 | surviving fraction (OSI-906 [6]; 50 nM): 0.974 ± 0.037 | surviving fraction (OSI-906 [6]; 100 nM): 0.947 ± 0.004 | surviving fraction (OSI-906 [6]; 500 nM): 0.943 ± 0.032 | surviving fraction (OSI-906 [6]; 1000 nM): 0.888 ± 0.057 | surviving fraction (CELECOXIB [7]; 0.5 nM): 1.075 ± 0.01 | surviving fraction (CELECOXIB [7]; 1 nM): 1.09 ± 0.021 | surviving fraction (CELECOXIB [7]; 5 nM): 1.13 ± 0.075 | surviving fraction (CELECOXIB [7]; 10 nM): 1.12 ± 0.016 | surviving fraction (CELECOXIB [7]; 50 nM): 1.14 ± 0.055 | surviving fraction (CELECOXIB [7]; 100 nM): 1.16 ± 0.038 | surviving fraction (CELECOXIB [7]; 500 nM): 1.12 ± 0.067 | surviving fraction (CELECOXIB [7]; 1000 nM): 1.2 ± 0.029 | surviving fraction (CARBOPLATIN [8]; 0.5 nM): 1.15 ± 0.096 | surviving fraction (CARBOPLATIN [8]; 1 nM): 1.11 ± 0.02 | surviving fraction (CARBOPLATIN [8]; 5 nM): 1.12 ± 0.07 | surviving fraction (CARBOPLATIN [8]; 10 nM): 1.07 ± 0.025 | surviving fraction (CARBOPLATIN [8]; 50 nM): 1.17 ± 0.024 | surviving fraction (CARBOPLATIN [8]; 100 nM): 1.2 ± 0.029 | surviving fraction (CARBOPLATIN [8]; 500 nM): 1.19 ± 0.052 | surviving fraction (CARBOPLATIN [8]; 1000 nM): 1.13 ± 0.025 | area under dose-response curve [9]: 3.06 | area under dose-response curve (PACLITAXEL [10]): 1.21 | area under dose-response curve [11]: 3.76 | area under dose-response curve (YM155 [12]): 1.66 | area under dose-response curve (GEFITINIB [13]): 3.6 | area under dose-response curve (OSI-906 [14]): 2.99 | area under dose-response curve (CELECOXIB [15]): 3.73 | area under dose-response curve (CARBOPLATIN [16]): 3.85
